We go through 20 molecules from publication PMC6269853, “Synthesis and Biological Evaluation of Unsymmetrical Curcumin Analogues as Tyrosinase Inhibitors” (Molecules, 2013).

For data set [1], the target named is mushroom tyrosinase. As to the kind of experiment: Diphenolase inhibitory activity of mushroom tyrosinase (L-DOPA oxidation, spectrophotometric). Type of data set: biochemical. Conditions: for IC50: L-DOPA 0.5 mM, pH 6.8, 25 °C. Here is the method: UCAs 3a–k, 4a–i were subjected to tyrosinase inhibitory assays by measuring the oxidation of L-DOPA according to the literature protocol.
The spectrophotometric assay for tyrosinase was performed according to the reported method with slight modifications. Briefly, all the synthesized compounds were screened for the diphenolase inhibitory activity of tyrosinase using L-DOPA as the substrate. All compounds were dissolved in DMSO. The final concentration of the test solution was 2.0%. Phosphate buffer (pH = 6.8) was used to dilute the DMSO stock solution of test compounds. Thirty units of mushroom tyrosinase (0.5 mg/mL) were firstly pre-incubated with these compounds in 50 mM phosphate buffer (pH = 6.8) at 25 °C for 10 min. L-DOPA (0.5 mM) was then added to the reaction mixture and the enzyme reaction was monitored by measuring the change in absorbance at 475 nm of the formation of L-DOPA chrome for 1 min. The measurement was performed for three times for each concentration and averaged before further calculations. IC50 values were determined by the interpolation of the dose–response curves.

The subject of data set [2] is mushroom tyrosinase. As to the kind of experiment: Inhibition kinetics by Lineweaver-Burk plots. Type of data set: biochemical. Conditions: oxidation of L-DOPA. Here is the method: The inhibitory mechanism of selected compounds 3c, 3d, 3i and 3j against mushroom tyrosinase during the oxidation of L-DOPA was determined by the same methods. […] However, 3d and 3j containing m-dihydroxyl groups on ring B were competitive inhibitors because the intersection of those straight lines was on the Y-axis.
Concentrations of 3c, 3d, 3i and 3j for curves 1–3 were 0.0 μM, 4.06 μM, 12.18 μM; 0.0 μM, 4.06 μM, 16.23 μM; 0.0 μM, 14.8 μM, 59.2 μM; 0.0 μM, 3.70 μM, 11.09 μM, respectively.
Pre-incubation and measurement time was the same as the procedure in section 3.3. Maximal initial velocity was determined from initial linear portion of absorbance between 0 and 60 s after addition of mushroom tyrosinase. The inhibition type on the enzyme was assayed by Lineweaver–Burk plots, and the inhibition constant was determined by the second plots of the apparent Km/Vm or 1/Vm versus the concentration of compound. The same procedure was executed for other compounds.

For data set [3], the system named is CD-1 mice. As to the kind of experiment: Acute oral toxicity in mice (OECD 423). To be noted: for Body Weight: last day; for Drinking Water / Food Intake: measured daily and averaged; for autopsy, changes in organs: mice, 1,200 mg/kg, end of experimental period (14 days). The class given is in vivo. Here is the method: 3d and 3j were used as the representative compounds to evaluate the toxicity in mice.
The acute toxicity of compound 3d was examined according to the OECD 423 Guideline for Testing of Chemicals Acute Oral Toxicity – Acute Toxic Class Method procedures. The test procedure was applied with an initial dose at 1,200 mg/kg. Male and female CD-1 mice (six males and six females; 7~8 weeks old) were obtained from Center of Animal Test of the Sun Yat-sen University, housed in the University-approved animal facility in rooms maintained at 22 ± 2 °C with 55%–60% humidity and 12 h photoperiod. After five-day adaptation to laboratory conditions, mice were divided into four equal groups (controls: male, female, and treated: male and female, three animals in each group, equal body mass) and given by gavage either a single dosage of 1,200 mg 3d (dispersed in 3% Tween 80 aqueous solution)/kg, and equal volumes of distilled water containing 3% Tween 80 for control groups, using a suitably graduated syringe and a stainless steel intubation cannula. Mice had free access to distilled water and commercial standard diet. Animals were observed individually after dosing at least once during the first 30 min, periodically during the first 24 h, with special attention given during the first 4 h, and daily thereafter, for a total of 14 days. All observations were systematically recorded with individual records being maintained for each animal. Individual body weight of animals was determined shortly before the test substance was administered and weekly thereafter. All the animals were sacrificed at the end of the observation period and subjected to a necropsy. The same procedure was performed for compound 3j.

On to “1-(3,4-Dihydroxyphenyl)-5-(4-hydroxy-3-methoxyphenyl)penta-1,4-dien-3-one [Compound 4g]”, for which, in data set [1], the IC50 was > 200 µM.

As to “1-(3,4-Dihydroxyphenyl)-5-(4-methoxyphenyl)penta-1,4-dien-3-one [Compound 4i]”, the 50% inhibitory concentration (IC50) in data set [1] is > 200 µM.

“1-(4-Hydroxy-3,5-dimethoxyphenyl)-5-(4-hydroxy-3-methoxyphenyl)penta-1,4-dien-3-one [Compound 4h]”: in data set [1], the IC50 is < 100 µM. Also, the “fold difference in activity versus 4c” value in data set [1] (decrease relative to 4c (IC50 = 4.64 μM)) is on record as > 16 fold.

As to `CCCCc1ccc(O)cc1O` [4-Butylresorcinol, reference compound], the IC50 in data set [1] was 11.3 µM.

For `COc1ccc(C=C2CCC(=Cc3ccc(O)cc3)C2=O)cc1` [Compound 3a, 2-(4-Hydroxybenzylidene)-5-(4-methoxybenzylidene)cyclopentanone], the melting point is 241 to 243 °C. The same molecule gave an IC50 in data set [1] of 189 µM.

As to `COc1cc(C=C2CCC(=Cc3ccc(O)cc3)C2=O)ccc1O` [Compound 3b, 2-(4-Hydroxy-3-methoxybenzylidene)-5-(4-hydroxybenzylidene)cyclopentanone], the melting point lay in the range of 278 to 280 °C. In data set [1], this molecule gave an IC50 of 56.6 µM. The “fold difference in activity versus 3c” value in data set [1] (decrease relative to 3c) was > 8 fold.

Regarding `O=C1C(=Cc2ccc(O)cc2)CCC1=Cc1ccc(O)c(O)c1` [Compound 3c, 2-(3,4-Dihydroxybenzylidene)-5-(4-hydroxybenzylidene)cyclopentanone], the melting point was > 300 °C. Besides, in data set [1], the 50% inhibitory concentration (IC50) stood at 7.78 µM. Moreover, the inhibition type result in data set [2] is “mixed-competitive”.

With `O=C1C(=Cc2ccc(O)cc2)CCC1=Cc1ccc(O)cc1O` [Compound 3d, 2-(2,4-Dihydroxybenzylidene)-5-(4-hydroxybenzylidene)cyclopentanone], in data set [1], the “fold lower IC50 than kojic acid” value was “about 16 fold” and 1.74 µM corresponded to half-maximal inhibition (IC50). The “course of enzyme activity inhibition” value in data set [1] (diphenolase activity, L-DOPA, 25 °C, Figure 1) is reported as “concentration-dependent”. In data set [1] (vs 4-butylresorcinol (11.27 μM)), the “fold lower IC50 than 4-butylresorcinol” value is ~6 fold. Besides, the inhibition type result in data set [2] is recorded as “competitive”. Moreover, in data set [3] (female CD-1 mice, 1,200 mg/kg), the “Body Weight” value amounted to 27.3 ± 2.9 g, the “Drinking Water” value turned out to be 4.2 ± 0.5 mL/day and the “Food Intake” value was 4.0 ± 0.4 g/day. In addition, in data set [3] (male CD-1 mice, 1,200 mg/kg), the “Body Weight” value was 30.9 ± 2.6 g, the “Drinking Water” value was found to be 5.6 ± 0.6 mL/day and the “Food Intake” value is reported as 5.1 ± 0.5 g/day. Further, the “autopsy, changes in organs” value in data set [3] is listed as “no apparent changes”.

For `COc1cc(C=C2CCC(=Cc3ccc(O)cc3)C2=O)cc(OC)c1O` [Compound 3e, 2-(4-Hydroxy-3,5-dimethoxybenzylidene)-5-(4-hydroxybenzylidene)cyclopentanone], the melting point was in the range of 259 to 261 °C. This molecule yielded an IC50 in data set [1] of 9.66 µM.

The molecule `CC(C)(C)c1cc(C=C2CCC(=Cc3ccc(O)cc3)C2=O)cc(C(C)(C)C)c1O` [Compound 3f, 2-(3,5-Di-tert-butyl-4-hydroxybenzylidene)-5-(4-hydroxybenzylidene)cyclopentanone] showed a melting point of 233 to 235 °C. In addition, inhibition in data set [1] was half-maximal at 168 µM (IC50).

For the molecule `COc1cc(C=C2CCC(=Cc3ccc(O)cc3)C2=O)cc(Br)c1O` [Compound 3g, 2-(3-Bromo-4-hydroxy-5-methoxybenzylidene)-5-(4-hydroxybenzylidene)cyclopentanone], the melting point fell in the range of 241 to 243 °C. Besides, the IC50 in data set [1] is 173 µM.

Turning to `O=C1C(=Cc2ccc(O)cc2)CCC1=Cc1cc(Br)c(O)c(Br)c1` [Compound 3h, 2-(3,5-Dibromo-4-hydroxybenzylidene)-5-(4-hydroxybenzylidene)cyclopentanone], the melting point fell in the range of 286 to 288 °C. In addition, in data set [1], the half-inhibitory concentration (IC50) was > 200 µM.

As for `COc1cc(C=C2CCC(=Cc3ccc(O)c(O)c3)C2=O)ccc1O` [Compound 3i, 2-(3,4-Dihydroxybenzylidene)-5-(4-hydroxy-3-methoxybenzylidene)cyclopentanone], the melting point was > 300 °C. Also, in data set [2], the inhibition type entry is recorded as “mixed-competitive”.

As for `COc1cc(C=C2CCC(=Cc3ccc(O)cc3O)C2=O)ccc1O` [Compound 3j, 2-(2,4-Dihydroxybenzylidene)-5-(4-hydroxy-3-methoxybenzylidene)cyclopentanone], in data set [2], the inhibition type entry was “competitive”. Besides, in data set [3] (female CD-1 mice, 1,200 mg/kg), the “Body Weight” value was found to be 26.9 ± 2.1 g, the “Drinking Water” value is reported as 4.1 ± 0.4 mL/day and the “Food Intake” value was determined as 3.9 ± 0.5 g/day. In data set [3] (male CD-1 mice, 1,200 mg/kg), the “Body Weight” value stood at 30.1 ± 2.8 g, the “Drinking Water” value was found to be 5.4 ± 0.5 mL/day and the “Food Intake” value was 5.2 ± 0.4 g/day. For the same molecule, the “autopsy, changes in organs” value in data set [3] is on record as “no apparent changes”.

`COc1cc(C=C2CCC(=Cc3cc(OC)c(O)c(OC)c3)C2=O)ccc1O` [Compound 3k, 2-(4-Hydroxy-3,5-dimethoxybenzylidene)-5-(4-hydroxy-3-methoxybenzylidene)cyclopentanone] yielded a melting point of 129 to 131 °C. In addition, in data set [1], the half-inhibitory concentration (IC50) was > 200 µM.

Molecule `COc1ccc(C=CC(=O)C=Cc2ccc(O)cc2)cc1` [Compound 4a, 1-(4-Hydroxyphenyl)-5-(4-methoxyphenyl)penta-1,4-dien-3-one] had a melting point of 114 to 116 °C. In addition, the IC50 in data set [1] stood at 183 µM.

As to `COc1cc(C=CC(=O)C=Cc2ccc(O)cc2)ccc1O` [Compound 4b, 1-(4-Hydroxy-3-methoxyphenyl)-5-(4-hydroxyphenyl)penta-1,4-dien-3-one], the melting point lay within 98 to 101 °C. Further, it took 46.2 µM to reach half-maximal inhibition in data set [1] (IC50).

For `O=C(C=Cc1ccc(O)cc1)C=Cc1ccc(O)c(O)c1` [Compound 4c, 1-(3,4-Dihydroxyphenyl)-5-(4-hydroxyphenyl)penta-1,4-dien-3-one], the melting point was in the range of 181 to 183 °C. In data set [1], this molecule came in with a half-inhibitory concentration (IC50) of 4.64 µM.

For the molecule `COc1cc(C=CC(=O)C=Cc2ccc(O)cc2)cc(OC)c1O` [Compound 4d, 1-(4-Hydroxy-3,5-dimethoxyphenyl)-5-(4-hydroxyphenyl)penta-1,4-dien-3-one], the melting point was in the range of 93 to 95 °C. Half-maximal inhibition in data set [1] (IC50) was put at 7.2 µM.

On to `O=C(C=Cc1ccc(O)cc1)C=Cc1cc(Br)c(O)c(Br)c1` [Compound 4e, 1-(3,5-Dibromo-4-hydroxyphenyl)-5-(4-hydroxyphenyl)penta-1,4-dien-3-one], for which the melting point lay in the range of 110 to 113 °C. Moreover, the half-inhibitory concentration (IC50) in data set [1] was > 200 µM.

A word on the IC50: it is the concentration at which inhibition is half-maximal. Low values mean higher potency, high ones lower potency. A word on the melting point: it is the temperature, or range, at which the solid turns liquid.
